Test results published in patent publication US9072729B2, “Method for treating fibrosis and cancer with imidazolium and imidazolinium compounds” (Agency for Science, Technology and Research, priority 2008, dated 2015).

How the values were obtained:
Format in all cases: cell-based, rat
[1] = system: SOD; assay: Superoxide dismutase (SOD) activity assay in treated cells; conditions: HSC T6 cells, 48 h
Protocol: FIG. 4. Effect of DBZIM and TDBZIM on GPx, CAT, SOD and GST. DBZIM affected (a) GPx activity and (c) CAT activity in a dosage-dependent manner. TDBZIM suppressed (b) GPx activity and (d) CAT activity. (e) DBZIM and (f) TDBZIM had little effect on SOD activity. (g) DBZIM induced GST activity. HSC T6 cells were treated with compounds of various concentrations for 48 h, and homogenized by sonication (60% frequency for 30 s) in PBS (pH 7.4, 1 mM of EDTA) for GPx, GST and CAT assays, or in 20 mM of HEPES buffer containing 1 mM of EGTA, 210 mM of mannitol and 70 mM of sucrose (pH 7.2) for SOD assay. Enzyme activity was normalized against total protein. DBZIM was dissolved in DMSO, and TDBZIM was dissolved in H2O. The data were presented as mean and SEM, N=6, *^aP<0.05, *^bP<0.01, *^cP<0.005, and *^dP<0.0005, when compared to the vehicle control.
Activity levels of three anti-oxidant enzymes, GPx, CAT and SOD, were determined using assay kits from Cayman Chemical. To assay GPx and CAT activities, protein samples were harvested in ice-cold PBS containing 1 mM of EDTA. To assay SOD activity, protein samples were prepared in 20 mM of N-(2-hydroxyethyl)-piperazine-N′-2-ethanesulfonic acid (HEPES) buffer containing 1 mM of ethylene glycol-bis(2-aminoethylether)-N,N,N′,N′-tetraacetic acid (EGTA), 210 mM of mannitol and 70 mM of sucrose. Protein content was determined by BCA assay.
Total SOD, including all three types of SOD (Cu/Zn-, Mn- and Fe-SOD), was quantified using a tetrazolium salt to detect superoxide radicals generated by xanthine oxidase and hyposanthine. […] SOD activity was expressed as U/mg protein.

[2] = system: HSC-T6 cells; assay: Cellular ROS determination (DCF labeling); conditions: 48 h
Protocol: FIG. 2. (a) DBZIM and (b) TDBZIM attenuated cellular ROS level. HSC T6 cells were incubated with DBZIM (10, 50, 100 and 300 μM), TDBZIM (10, 50 and 100 μM), NAC (1 mM) and EGCG (25 μM) for 48 h before assaying for cellular ROS levels. The data were presented as relative values after normalizing against a vehicle control. The data were presented as mean and SEM, N=6, *^bP<0.01, *^cP<0.005, and *^dP<0.0005 when compared to the vehicle, control.
The ROS level of treated HSC-T6 cells was determined using the dichlorofluorescein (DCF) labeling method (Molecular Probes Inc., OR, USA). Cultured cells were harvested by trypsinization, and resuspended in phenol red-free DMEM (Invitrogen). Cells were then incubated with 10 μg/ml of 2′,7′-dichloro-fluorescein diacetate (DCFH-DA) in DMEM for 15 min before resuspension in DMEM for assaying. Cell solution was dispensed into a black-wall 96-well pate in triplicate for fluorescence readout at Ex=485 nm and Em=530 nm with a Tecan Safire II plate reader. The fluorescence unit was normalized against viable cell numbers, which were determined using 3-(4,5-dimethylthiazol-2-yl)-2,5-diphenyl tetrazolium bromide (MTT assay, Promega, Wis., USA). Cellular ROS level was expressed relative to the control sample.

[3] = system: HSC-T6 cells; assay: Glutathione (GSH) and GSSG assays; conditions: 48 h
Protocol: FIG. 3. […] (c) DBZIM and (d) TDBZIM both suppressed cellular GSSG (the oxidation product of GSH). (e) DBZIM and (f) TDBZIM both enhanced the GSH/GSSG ratio. HSC-T6 cells were incubated with compounds of various concentrations for 48 h, and assayed for the total GSH and GSSG amounts. The GSH/GSSG ratio was calculated as (GSH−GSSG)/GSSG. The GSH and GSSG amounts were normalized against the total protein. Note that DBZIM was dissolved in DMSO, and TDBZIM was dissolved in H2O. The data were presented as mean and SEM, N=6, *^aP<0.05, *^bP<0.01, *^cP<0.005, and *^dP<0.0005, when compared to the vehicle control.
Total cellular GSH and GSSG levels were determined by using assay kits from Cayman Chemical (Ann Arbor, Mich., USA) following the manufacturer's instructions. Briefly, HSC-T6 cells treated with DBZIM, TDBZIM, NAC, or EGCG were scalped and homogenized in phosphate buffered saline (PBS) by sonication at 60% frequency for 30 s, and the supernatant was collected after centrifugation at 16,000×g for 10 min at 4° C. Protein content of the samples was determined by bicinchonicic acid (BCA) assay.
For GSH assays, the protein sample was deproteinated by metaphosphoric acid (Aldrich, Catalog No. 23927-5), and the pH was adjusted by triethanolamine (Aldrich, Catalog No. T5830-0) according to the manual. The sample was ready for assaying total GSH including both the reduced and oxidized forms. Quantification of GSSG, exclusive of GSH, was performed by first derivatizing GSH with 2-vinylpyridine and assaying separately. Colorimetric signal was recorded at 405 nm with a Tecan Safire II plate reader. The levels of GSH or GSSG were determined as nmol/μg protein.

## 1,3,5-tris(4-methyl-imidazolium)-linked cyclophane.3Br [TDBZIM]
[1]
  effect on SOD activity: did not show much effect
[2]; 10 μM
  suppression of cellular ROS level: 19%
[2]; 100 μM
  suppression of cellular ROS level: 36%
[3]; 10 μM
  depletion of GSSG: 12%
  enhancement of GSH/GSSG ratio: 14%
[3]; 50 μM
  depletion of GSSG: 35%
  enhancement of GSH/GSSG ratio: 65%
[3]; 100 μM
  depletion of GSSG: 50%
  enhancement of GSH/GSSG ratio: 106%
[3]; 10-100 μM
  effect on total cellular GSH level: did not alter

## (−)-Epigallocatechin gallate [EGCG, reference compound]
[1]
  effect on SOD activity: did not show much effect
[2]; EGCG 25 μM, NAC 1 mM
  attenuation of cellular ROS level (references): 14%
[3]; EGCG 25 μM, NAC 5 mM
  reduction of GSSG (references): 42%
[3]; NAC 5 mM, EGCG 25 μM
  increase in GSH/GSSG ratio (references): 2 fold
  induction of total GSH (references): 19%

## [Br-].c1ccc(Cn2cc[n+](Cc3ccccc3)c2)cc1 [DBZIM, 1,3-bisbenzylimidazolium bromide]
[1]
  effect on SOD activity: did not show much effect
[2]; 50 μM
  suppression of cellular ROS level: 25%
[2]; 300 μM
  suppression of cellular ROS level: 34%
[3]; 10 μM
  attenuation of total GSH level: 7%
  depletion of GSSG: 13%
  enhancement of GSH/GSSG ratio: 8%
[3]; 50 μM
  attenuation of total GSH level: 12%
  depletion of GSSG: 23%
  enhancement of GSH/GSSG ratio: 15%
[3]; 100 μM
  attenuation of total GSH level: 20%
  enhancement of GSH/GSSG ratio: 23%
[3]; 300 μM
  GSH/GSSG ratio relative to control group: 7.4 fold
  depletion of GSSG: 85%
[3]; 300 μM, without statistical significance
  enhancement of total GSH level: 8%
[3]; 1001 μM
  depletion of GSSG: 35%
